Assay results: patent US20060099712A1, “Correlation of anti-cancer activity of dyes with redox potentials” (Eastman Kodak Company, priority 2004, published 2006)
≈ marks a conversion by molar mass, not a printed value. Where “and” joins values, the source holds several entries; their conditions need not be identical. Equal values may be shown once. Read-outs that look alike come from different tables or passages of the source.

Experiments:
[1] = system: CV-1 Normal Monkey Kidney Epithelial; assay: Clonogenic dye screening assay, CV-1 cells (IC50); format: cell-based, African green monkey; details: for IC50: Primates; for CV (IC50 in the CV-1 cell line): 3 hrs treatment, unit from method b117-118
Description: CX-1 is a cancerous human colon adenocarcinoma cell line. CV-1 is a non-cancerous control, which is a kidney epithelial cell line from an African green monkey. IC50 is the dye concentration at which 50% of the cells are killed. Selectivity or kill ratio is defined as the ratio of […] at IC50 for both CX-1 and CV-1. A ratio with a high number indicates a high selectivity.
The dyes were screened in two cell lines. CX-1 is a human colon adenocarcinoma cell line. CV-1 is a kidney epithelial cell line from an African green monkey. CV-1 was used as a reference because no normal human epithelial cell line is available for clonogenic assay.
In the initial screen, dyes were examined at six different concentrations to generate a dose response curve. An IC50 value, the concentration at which 50% of the cells are killed, was then calculated. Initially, a dye concentration of 1.0 μg/mL was the highest examined for the CX-1 cell line and 0.005 μg/mL was the lower limit. The corresponding limits on the CV-1 cell line were […].
The screening procedure used a response curve that was determined from eight dye concentrations. The upper and lower limits of CX-1 were 0.32 and 0.0015 μg/mL, respectively, and the corresponding revised limits on CV-1 were 3.2 and 0.025 μg/mL. The screening results were reported by assigning an IC50 value to each dye for the CV-1 and CX-1 cell lines. These values will be referred to herein simply as CV and CX. The most desirable result would be to have a dye that was highly toxic to carcinoma cells but nontoxic to ‘normal’ cells. One measure of this type of selectivity is the ratio of the IC50's in the normal cell line to that in the carcinoma line, CV/CX.
Compounds are screened via an in vitro assay. CV-1 and CX-1 cells are seeded into separate assay plates. The plates are treated with varying concentrations of test compounds, rinsed, and colonies allowed to grow. IC50's are determined and drugs evaluated based on their selectivity and toxicity. Assay Steps: • I. Seeding Cells • II. Weighing • III. Preparation of Solution • IV. Treatment • V. Rinsing and Feeding • VI. Fixing • VII. IC50 Determination I. Seeding Cells
The cells should be seeded 16-30 hours before treatment. The media for CV-1 cells is DME+5% calf serum +5% Nuserum. The media for CX-1 cells is RPMI/DME (50/50)+5% calf serum +5% Nuserum.
(c) number of cells based on 2000 CX-1 cells/well and 1000 CV-1 cells/well. NOTE: Always make enough cell suspension for 1 extra plate to allow for volume loss during transfers.
• (a) For CV-1: 256 ug/ml-256 ul of 1 mg/ml stock +744 ul DMSO • (b) For CX-1: 25.6 ug/ml-100 ul of 256 ug/ml+900 ul DMSO IV. Treatment • 1. Each plate is treated with 4 test compounds, one positive control and one negative control. • 2. Serial dilutions of the compounds are made in the following way:
2 multi-well pipetters are used. One is set for 10 ul and one for 200 ul. Each is equipped with 6 tips spaced such that they fit into the 6 rows of a plate. 390 ul of media is added to the first column of each plate. 10 ul each of 4 compound solutions, a positive and a negative control are taken up and put into the first column of wells. The 200 ul pipetter is then placed in the same wells, pipetted up and down 3 times and two 200 ul aliquots are moved to the next column of wells. This column is pipetted up and down 3 times and 400 ul moved to column 3, etc. The final 400 ul excess from column 8 is discarded.
• 3. Label the plates along the front, each row −1 compound. • 4. Incubate the plates at 37° C. for 3 hrs. V. Rinsing • 1. Prepare several bottles of CX-1 and CV-1 media. • 2. Check for precipitate in first column of each plate and note. • 3. Starting with the plates treated first, rinse several plates at a time by aspirating the treatments and refilling each well with 0.5-1.0 ml of the rinse media. Aspirate and refill 2 more times for a total of 3 rinses. • 4.

[2] = system: CX-1 Human Colon Carcinoma; assay: Clonogenic dye screening assay, CX-1 cells (IC50); format: cell-based; details: for IC50: Homo sapiens; for CV/CX (selectivity, kill ratio): ratio of IC50 in normal CV-1 line to IC50 in carcinoma CX-1 line; for CX (IC50 in the CX-1 cell line): 3 hrs treatment, unit from method b117-118
Outline: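 Cells seeded 16-30 h ahead (2000 CX-1 or 1000 CV-1 per well), exposed to serially diluted dyes for 3 h at 37 °C, rinsed three times, then grown into colonies. Eight-point curves spanned 0.32-0.0015 μg/mL (CX-1) and 3.2-0.025 μg/mL (CV-1). IC50 is the concentration killing 50% of cells.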

[3] = CV-1, 3 hrs treatment, colonies after 7-10 days, unit from method, read-out: CV (IC50 in the CV-1 cell line)
[4] = CX-1, 3 hrs treatment, colonies after 7-10 days, unit from method, read-out: CX (IC50 in the CX-1 cell line)
[5] = CV-1, read-out: CV (IC50 in the CV-1 cell line)
[6] = CX-1, read-out: CX (IC50 in the CX-1 cell line)
[7] = Table XVI, selectivity ratio of IC50 values

Structure (SMILES)	IC50 [1, 3]	IC50 [2, 4]	CV/CX (selectivity, kill ratio) [2]	other results
CCN1/C(=C/C=C/c2oc3ccc(-c4ccccc4)cc3[n+]2CCOC(C)=O)Sc2ccccc21 [Dye D-153]	3 µg/mL	0.03 µg/mL	100	
CN1/C(=C/c2ccc3ccc4ccccc4c3[n+]2C)Sc2ccccc21 [Dye D-130]	0.5 µg/mL	0.005 µg/mL	100	
CCN1/C(=C/C=C/c2sc3c([n+]2C)CCCC3)Sc2ccccc21 [Dye D-146]	0.3 µg/mL	≤ 0.004 µg/mL	75.0 and 60	
CCN1/C(=C/C=C/c2oc3ccc(SC)cc3[n+]2C)Sc2ccccc21.[I-] [Dye D-138]			>60.0 and 60	CV (IC50 in the CV-1 cell line) ([1]; colonies after 7-10 days): 0.3 µg/mL; CX (IC50 in the CX-1 cell line) ([2]; colonies after 7-10 days): <0.005 µg/mL
CCSC(=C\c1oc2ccccc2[n+]1CC)/C=C1\Sc2ccccc2N1CC.[I-] [Dye D-142]				CV (IC50 in the CV-1 cell line) ([1]; colonies after 7-10 days): 0.5 µg/mL; CX (IC50 in the CX-1 cell line) ([2]; colonies after 7-10 days): <0.005 µg/mL
CC(=CC(C)=C1Sc2ccccc2N1C)c1sc2ccccc2[n+]1C [drawing 38|M|Me|H|Me]			2.5	CV (IC50 in the CV-1 cell line) ([1]; colonies after 7-10 days): 0.5 µg/mL; CX (IC50 in the CX-1 cell line) ([2]; colonies after 7-10 days): 0.2 µg/mL
CCN1/C(=C/C=C/c2sc3ccccc3[n+]2CCO)Sc2ccccc21 [Dye D-125]	> 3.2 µg/mL	0.035 µg/mL	>91.4	IC50 ([1]; CV-1, Table XX, thiacarbocyanine nitrogen substituents, CV-1 cells, read-out: CV): > 3.2 µg/mL; IC50 ([2]; CX-1, Table XX, thiacarbocyanine nitrogen substituents, CX-1 cells, read-out: CX): 0.035 µg/mL; CV/CX ([2]; Table XX, ratio given a value of 1 where dye inactive): 91.4
CCN1/C(=C/C=C/c2oc3ccccc3[n+]2CC)Sc2cccc(-c3ccccc3)c21.[I-] [Dye D-106]			80	CV (IC50 in the CV-1 cell line) ([1]; colonies after 7-10 days): 0.8 µg/mL; CX (IC50 in the CX-1 cell line) ([2]; colonies after 7-10 days): 0.01 µg/mL
CCN1/C(=C/C=C/c2cc3scc([S-])[n+]3c3ccccc23)Oc2ccccc21 [Dye D-141]	0.5 µg/mL (≈ 1.24 µM)	< 0.005 µg/mL	100	
CCN1/C(=C/C=N/c2sc3ccccc3[n+]2CC)Sc2ccccc21 [Dye D-149]	7 µg/mL	0.09 µg/mL	77.8	
CCN1/C(=C/C=C/c2sc3cc4ccccc4nc3[n+]2CC)Sc2ccc3ccccc3c21 [Dye D-114]	3 µg/mL	0.05 µg/mL	60	
CCN1/C(=c2/s/c(=c3\s/c(=C\c4ccc5ccccc5[n+]4CC)n(CC)c3=O)n(CC)c2=O)Sc2ccccc21 [Dye D-108]	3.2 µg/mL	0.045 µg/mL	71.15	
CC[n+]1c(/C=C/C=C2\Sc3ccccc3N2CC#N)oc2ccccc21 [Dye D-124]	10 µg/mL	0.1 µg/mL	100	IC50 ([1]; CV-1, Table XXI, oxathiacarbocyanine nitrogen substituents, CV-1 cells, read-out: CV): 10 µg/mL; IC50 ([2]; CX-1, Table XXI, oxathiacarbocyanine nitrogen substituents, CX-1 cells, read-out: CX): 0.1 µg/mL; CV/C ([2]; Table XXI, selectivity ratio, value of 1 where dye inactive): 100.0
CCN1/C(=C/C=C/c2sc3ccccc3[n+]2CC)[Se]c2ccc(Cl)cc21 [Dye D-135]			>200.0 and 200	IC50 [1, 5]: 1 µg/mL; IC50 [2, 6]: < 0.005 µg/mL; Selectivity ([2]; Table 1, cell line not given, values equal CV/CX of Table II): 200
CC[n+]1c(/C=C/C=C2\[Te]c3ccccc3N2C)sc2ccccc21 [Dye D-152]			60	IC50 ([1]; CV-1, read-out: CV): 0.3 µg/mL; IC50 [1, 5]: 0.3 µg/mL; IC50 ([2]; CX-1, read-out: CX): < 0.005 µg/mL; IC50 [2, 6]: < 0.005 µg/mL; CV/CX [2, 7]: >60.0; CX ([2]; Table XVII, benzotellurazole derivatives, CX-1 cells): <0.005; CV/CX ([2]; Table XVII, selectivity ratio of IC50 values): >60.0
CCN(CC)CCN1/C(=C/C(C)=C/c2sc3ccccc3[n+]2CCN(CC)CC)Sc2ccccc21 [Dye D-121]	0.8 µg/mL	0.01 µg/mL	80	
CCN1/C(=C/C=C/c2oc3ccc(OC)cc3[n+]2CC)Sc2ccccc21.[I-] [Dye D-136]			>60.0 and 60	CV (IC50 in the CV-1 cell line) ([1]; colonies after 7-10 days): 0.3 µg/mL; CX (IC50 in the CX-1 cell line) ([2]; colonies after 7-10 days): <0.005 µg/mL
CCN1/C(=C/C(C)=C/c2sc3ccc4ccccc4c3[n+]2CC)Oc2ccc3ccccc3c21 [drawing 40|E|Me]			3.33 and 2.0	CV (IC50 in the CV-1 cell line) ([1]; colonies after 7-10 days): 0.1 µg/mL; CX (IC50 in the CX-1 cell line) ([2]; colonies after 7-10 days): 0.03 µg/mL and 0.05 µg/mL
CC[n+]1c(/C=C/c2ccc(N(C)C)cc2)[te]c2ccc(C)cc21 [Dye D-156]			60	IC50 [1, 5]: 3 µg/mL; IC50 [2, 6]: 0.05 µg/mL
CCC(/C=C1\Sc2ccc(Cl)cc2N1C)=C\c1oc2ccc(-c3ccccc3)cc2[n+]1C [Dye D-147]	8 µg/mL	0.05 µg/mL	160	
CC[n+]1c(/C=C/C=C2\OC=C(c3ccccc3)N2C)sc2ccccc21 [Dye D-145]	0.3 µg/mL	< 0.005 µg/mL	60	
CCN1C=C(c2ccccc2)O/C1=C\C=C\c1sc2ccccc2[n+]1CC [Dye D-123]	0.4 µg/mL	0.005 µg/mL	80	IC50 ([1]; CV-1, Table XVI, unsymmetrical dyes, CV-1 cells, read-out: CV): 0.4 µg/mL; IC50 ([2]; CX-1, Table XVI, unsymmetrical dyes, CX-1 cells, read-out: CX): 0.005 µg/mL; CV/CX [2, 7]: 80.0
CCN1/C(=C/C(=C/c2oc3ccccc3[n+]2CC)SC)Sc2ccccc21.[I-] [Dye D-137]			100	CV (IC50 in the CV-1 cell line) ([1]; colonies after 7-10 days): 3.0 µg/mL; CX (IC50 in the CX-1 cell line) ([2]; colonies after 7-10 days): 0.03 µg/mL
CCN1/C(=C/C=C/c2sc3ccccc3[n+]2CC)[Se]c2ccc(OC)cc21 [Dye D-134]			80	IC50 [1, 5]: 0.2 µg/mL; IC50 [2, 6]: 0.0025 µg/mL
